# Experimental data from article PMC10788856, “Mimicking Nonribosomal Peptides from the Marine Actinomycete Streptomyces sp. H-KF8 Leads to Antimicrobial Peptides” (ACS Infectious Diseases, 2023).
# Numbered stars: 1 amine (or outer) side, 2 acyl side, 3 side chain; on linkers, the order of the positions; unused ones are H or OH. Bridge positions count the residues as written; N and C are the ends. Square brackets hold non-standard residues; d marks the D form. Peptide text beside a SMILES is read from it. Tyr(3-NO2) = N[C@@H](Cc1ccc(O)c([N+](=O)[O-])c1)C(=O)O; Glutaryl = O=C(CCCC(=O)[*:2])[*:1]; Orn = NCCC[C@H](N)C(=O)O
# What was measured:
# [1] = 37 °C, RP-HPLC
# Procedure: Peptide stability in serum is another limiting factor for AMPs as novel antibiotics.[30]
# Peptide serum stability was performed according to D́Aloisio et al.[30] and Chen et al.[51] with some minor modifications. The serum stability was investigated using human serum (Sigma-Aldrich) from Human male AB plasma, USA origin, sterile-filtered. 250 μL serum was temperature-equilibrated at 37 °C and 100 μL aqueous peptide solution (L2: 1 mM; L3: 0.9 mM; L3-K: 0.7 mM; and C3: 0.5 mM) was added. RP-HPLC was measured at time intervals of 0, 0.5, 1, 4, and 24 h. For RP-HPLC samples, 30 μL of peptide solution was taken, 7 μL of Fmoc-Gly solution (4 mM) was added, and 2 μL of the sample was injected to HPLC. […]
# Figure S 133. RP-HPLC chromatogram (gradient from 10 to 90% acetonitrile in water over 10 min at 2
# ml/min, detection at 254 nm) of peptides tested for serum stability. A) peptide L2 B) peptide L3. C)
# (1 picture or pasted object on this page, not shown here)
# E. coli CCUG31246 [2] = format: cell-based; conditions: E. coli CCUG31246; 1:10 BHI; 5 × 10^5 CFU/mL; 37 °C, 16 h, steady agitation; used as 1× MIC
# Procedure: MICs were performed under the same growth conditions used for mode of action analysis following the guidelines issued by the Clinical Laboratory Standardization Institute (CLSI) with slight modifications. Serial two-fold dilutions of the peptides were prepared in 1:10 BHI in a sterile 96-well plate and subsequently inoculated with 5 × 10^5 CFU/mL of E. coli CCUG31246. […] The following MICs were obtained: C3: 512 μg/mL, L3: 64 μg/mL, and L3-K: 128 μg/mL. These concentrations were used for all mechanistic experiments. Polymyxin B was used as a positive control in all assays at a final concentration of 10 μg/mL.
# [3] = system: human embryonic kidney (HEK) cells; format: cell-based
# Procedure: To confirm the peptide selectivity toward bacteria cells, cytotoxicity assays of synthesized peptides L2, L3, L3-K, and C3 against human embryonic kidney (HEK) and hepatoblastoma (HepG2) were performed (Figure 4). The cell viability was assessed using resazurin 24 h post peptide exposure. The line at 70% cell viability marks out the threshold for cytotoxic potential compared to the negative control.
# Figure 4 Cell viability assessment using the resazurin assay 24 h post peptide exposure: (a) HepG2 and (b) HEK cells were treated with various concentrations of the peptides C3, L3, L3-K, and L2. Triton-X was used as a positive control. Cells cultured in pure cell media were used as negative controls and were considered to have 100% cell viability. The line represents the threshold for cytotoxicity level of 70% of cell viability compared to the negative control. Data are presented as the mean ± SD of three biological replicates of the HepG2 cells and the mean ± SD of two biological replicates of the HEK cells.
# Cytotoxicity against human embryonic kidney (HEK) and hepatoblastoma (HepG2) cell lines was assessed. Cells were grown to an initial seeding density of 10 000 cells per well. Metabolic activity was determined in a resazurin-based assay. HEK and HepG2 cells were exposed to four different concentrations of the peptides for 24 h. Treatment with Triton X-100 at 1% v/v was used as a positive control. Following this exposure period, the cells were treated with resazurin at a final concentration of 0.015 mg/mL for 3 h. The metabolic activity was then determined in an resazurin-based assay. The fluorescence intensities were quantified in a Hidex Sense microplate reader using an excitation wavelength of 544 nm and an emission wavelength of 590 nm.
# E. coli CCUG31246 [4] = experiment: DiSC(3)5 microscopy (membrane potential); format: cell-based; conditions: 0.5 μM DiSC(3)5
# Description: Propidium iodide is a large organic molecule that is not suitable to detect smaller ion-conducting pores or channels induced by antimicrobials. To assess whether the peptides may form smaller membrane pores sufficient for the passage of ions, we tested their effects on the membrane potential using the fluorescence probe DiSC(3)5.[40] This dye accumulates in the cell membrane in a membrane potential-dependent manner and disassociates, when the membrane potential is dissipated. […] This effect can be clearly seen with polymyxin B (Figure 7b).
# The membrane potential of E. coli CCUG31246 and E. coli MC4100 carrying pABCON2-fhuA ΔC/Δ4L was measured by DiSC(3)5 microscopy according to ref. ([40]) with minor modifications. Cells were grown in 1:10 BHI containing 50 μg/mL bovine serum albumin to an OD600 of 0.3 prior to antibiotic treatment with the respective peptides for 10 and 60 min. Samples were stained with 0.5 μM DiSC(3)5 for 15 min (added 5 min before adding antibiotics for the 10 min time point and after 45 min of antibiotic treatment for the 60 min time point). Stained samples were spotted on 1.2% agarose, sealed with a gene frame, and imaged immediately. Microscopy was performed as described above, and fluorescence intensity was analyzed with the same parameters used for propidium iodide detection.
smiles,measurement,setting,value
CC(C)[C@H]1NC(=O)[C@H](CCCN)NC(=O)[C@H]([C@@H](C)O)NC(=O)[C@H](CCCN)NC(=O)[C@H](Cc2c[nH]c3ccccc23)NC(=O)[C@@H](C)NC(=O)[C@@H](C(C)C)NC(=O)[C@@H](C)NC(=O)[C@H](Cc2c[nH]c3ccccc23)NC(=O)CCCC(=O)NCCCC[C@@H](C(N)=O)NC(=O)[C@H](Cc2ccc(O)c([N+](=O)[O-])c2)NC1=O [C3] (W[dA][dV][dA]W[Orn]T[Orn][dV][Tyr(3-NO2)]K-NH2; linker N-11 via Glutaryl),stability in human serum,"[1]; human serum from male AB plasma, 250 μL serum + 100 μL aqueous peptide solution (L2 1 mM; L3 0.9 mM; L3-K 0.7 mM; C3 0.5 mM), 0, 0.5, 1, 4, 24 h, Fmoc-Gly internal standard",stable after 24 h
same,"additional peaks / shoulder in chromatogram after 24 h in serum, total volume percentage","[1]; human serum, 24 h, detection at 254 nm",does not show any additional signal
same,MIC obtained for mechanistic experiments,E. coli CCUG31246 [2],512 µg/mL
same,"cytotoxicity, cell viability HEK",[3],at the highest tested concentration seems to have cytotoxic properties
same,"membrane potential, DiSC(3)5 fluorescence, 10 min","E. coli CCUG31246 [4]; 1× MIC of peptide, polymyxin B 10 μg/mL, 10 min",no effect on the membrane potential
same,"membrane potential, DiSC(3)5 fluorescence, 60 min","E. coli CCUG31246 [4]; 1× MIC, 60 min",partial depolarization
